Where two headings read alike, the source gives them in different places.
How the values were obtained:
[1] = test system: Conditioned Avoidance Responding (Rat); test: Block of Conditioned Avoidance Responding (Rat) test (CAR); type: in vivo; conditions: for change in vivo at 5 mg/kg: read-out: CAR 5 mg/kg (IP) (mean % change in CAR); for Escape Loss (% failures to escape, group mean): at CAR 5 mg/kg IP
From the text: Block of Conditioned Avoidance Responding (Rat)
Apparatus: Rat operant chambers, housed within sound attenuated booths, both from Capden Instruments Ltd., were used in this test. The test chamber (8" H×90-3/8" W×9" D) is constructed of aluminum and plexiglass with floor grid bars of stainless-steel (1/8" O.D.) spaced 9/16" apart. A stainless-steel operation level 1-1/2" wide projects 3/4" into the chamber and is positioned 2-2/8" above the grid floor. The shock stimulus is delivered via the grid floor by a Coulbourn Instruments solid state module. The parameters of the test and the collection of data are controlled automatically.
The rats are trained for two weeks to approach criterion levels in the avoidance test (90% avoidance rate). One-hour training sessions are run at about the same time each day for four or five days a week. The training session consists of 120 trials, with the conditioned stimuli presented every 30 seconds. A trail begins with presentation of the conditioned stimuli (a light and a tone). If the rat responds by depressing the operant lever during the 15-second presentation of the conditioned stimuli, the trial is terminated and the animal is credited with a CAR. Failure to respond during the conditioned stimuli causes the presentation of the unconditioned stimulus, a 0.7 mA shock which is accompanied by a light and tone for […]. If the rat depressed the lever within the ten-second period, the shock and trial are terminated and an escape response recorded. If the rat fails to depress the lever during the UCS (shock), the trial is terminated after ten seconds of shock and the absence of a response is scored as a failure to escape. Intertrial level presses have no effect. If a rat performs at the 90% CAR level for two weeks, it is then run twice a week o the test schedule (see below) until baseline performance stabilized.
The percent change in CAR on the drug treatment day compared to vehicle pretreatment day is the key measure. The percent change (% change) in CAR is determined using the following formula:
% change CAR=((Day 2% CAR/Day 1% CAR)×100)-100
A negative number indicates a blockade of CAR, whereas a positive number would indicate increased CAR. The test results are reported as the mean % change for the group of rats. […] Failure to escape was calculated for each animal as follows:
% Failures=# of Failures to Escape/# of trials
The % failures, viz., loss of escape, is also reported as a group mean. Failures to escape are monitored closely and a session is terminated if ten failures occurred.

dopamine D2 receptor = molecular target: T1, dopamine D2 receptor (Rattus norvegicus, UniProt P61169); test: Receptor Binding Assay: dopamine D2 binding, 3H-spiperone, striatal P2 fraction; conditions: 3H-spiperone 0.05 nM, 45 min at 37° C., read-out: D-2 Binding K-I
T1 construct: P2 fraction (synaptosomal membranes) prepared from male, Wistar rats; from tissue; host or cells: striatum of male Wistar rats, P2 fraction (synaptosomal membranes)
Experimental: The dopamine D2 binding activity of compounds was determined using a P2 fraction (synaptosomal membranes) prepared from male, Wistar rats. […] The data from this assay were analyzed by calculating the percent inhibition of the binding of the tritiated ligands by given concentrations of the test compound. Ki values, where given, were obtained from the logit analysis of concentration-inhibition curves.

[2] = rat, 5 mg/kg IP, negative number = blockade of CAR, -20% is the minimum for active

T1 sequence (P61169 whole entry): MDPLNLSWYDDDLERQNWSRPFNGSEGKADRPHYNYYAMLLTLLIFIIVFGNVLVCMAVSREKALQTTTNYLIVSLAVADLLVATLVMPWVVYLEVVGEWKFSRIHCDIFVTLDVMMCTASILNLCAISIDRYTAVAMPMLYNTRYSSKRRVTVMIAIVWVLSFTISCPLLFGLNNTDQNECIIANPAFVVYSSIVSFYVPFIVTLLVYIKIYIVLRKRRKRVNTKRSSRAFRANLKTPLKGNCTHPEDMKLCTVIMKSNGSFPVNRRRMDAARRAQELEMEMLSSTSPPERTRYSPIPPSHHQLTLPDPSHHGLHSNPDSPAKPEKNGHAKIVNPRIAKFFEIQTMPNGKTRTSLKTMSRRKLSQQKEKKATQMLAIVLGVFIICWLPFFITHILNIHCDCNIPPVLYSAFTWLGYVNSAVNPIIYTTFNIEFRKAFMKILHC

Row | Escape Loss (% failures to escape, group mean) ([1]; rat) [%] | Ki (dopamine D2 receptor) [nM] | Compound | change in vivo at 5 mg/kg [1, 2] [%] | change in vivo at 5 mg/kg ([1]; Rattus norvegicus, ip) [%]
1 | 32 | 53 | COc1ccccc1N1CCN(Cc2ccc(C(O)c3ccccc3)cc2)CC1 (stereo not drawn) [Compound 9, [4-[4-(2-Methoxyphenyl)-1-piperazinyl]methyl]-α-phenylbenzenemethanol] | -99.4 | –
2 | 12 | 90 | COc1ccccc1N1CCN(Cc2cccc(C(O)C(C)C)c2)CC1 (stereo not drawn) [Compound 7, [3-[4-(2-Methoxyphenyl)-1-piperazinyl]methyl]-α-(1-methylethyl)-benzenemethanol] | -98.8 | –
3 | 2 | 87 | COc1ccccc1N1CCN(Cc2cccc(C(O)c3ccccc3)c2)CC1 (stereo not drawn) [Compound 5, [3-[4-(2-Methoxyphenyl)-1-piperazinyl]methyl]-α-phenylbenzenemethanol] | -64.6 | –
4 | 2 | 16 | COc1ccccc1N1CCN(Cc2cccc(C(O)C3CCCCC3)c2)CC1 (stereo not drawn) [Compound 8, [3-[4-(2-Methoxyphenyl)-1-piperazinyl]methyl]-α-(cyclohexyl)-benzenemethanol] | -92.9 | –
5 | 2 | 198 | CCC(C)(O)c1cccc(CN2CCN(c3ccccc3OC)CC2)c1 (stereo not drawn) [Compound 6, [3-[4-(2-Methoxyphenyl)-1-piperazinyl]methyl]-α-methyl-α-ethylbenzenemethanol] | -86 | –

Row | Compound | Escape Loss (% failures to escape, group mean) ([1]; rat) [%] | Ki (dopamine D2 receptor) [nM] | change in vivo at 5 mg/kg [1, 2] [%] | change in vivo at 5 mg/kg ([1]; Rattus norvegicus, ip) [%]
6 | CC(C)Oc1ccccc1N1CCN(Cc2cccc(CO)c2)CC1 [Compound 4, 1-(3-Hydroxymethylphenyl)methyl-4-[2-(1-methylethoxy)phenyl]-piperazine] | 13 | 302 | – | -89.2

Source: patent US5332743A, “Benzyl and benzhydryl alcohols” (priority 1992, dated 1994)
